Data set [1] relates to Mgb-exposed cultured proximal tubule (HK-2) cells. The following applies: Zager & Burkhart, Kidney Int 1997; cited from earlier work.
Data set [2] deals with haptoglobin mRNA. The data set can be described thus: SnPP vs. SnMeP: renal cortical haptoglobin mRNA induction (RT-PCR). The following applies: 1 umole, 4 hrs post injection, n 3. Format: in vivo, mice. The text has this: FIG. 28. Comparison of SnPP vs. SnMeP effects on renal cortical HO-1 and haptoglobin mRNA induction 4 hrs post agent injection. Mice received either 1 umole tin protoporphyrin (SnPP), tin mesoporphyrin (SnMeP), or vehicle (n, 3 each) and 4 hrs renal cortical RNA was extracted and subjected to RT-PCR.

The conditions of data set [3]: Berglund 1988; Kappas 1988; Reddy 2003; cited from earlier work.
For data set [4], the system named is IL-10 protein. Kind of data set: Cardiac IL-10 protein (ELISA). It is filed as in vivo, CD-1 mice. How it is done: (§1) Thirty-two mice were divided into 4 equal groups: (1) control mice; (2) mice treated with 1 mg of N-Mgb injection (as a bolus through the tail vein); (3) mice treated with […] of SnPP (via tail vein); and (4) mice treated with combined N-Mgb 1 SnPP. After either 4 hours (n=16) or 18 hours (n=16), the mice were deeply anesthetized with pentobarbital (50 mg/kg), the abdomen was opened through a midline abdominal incision, and the kidneys were removed. To determine potential effects on extrarenal organs, a liver lobe and the heart were also removed. The tissues were iced and then extracted for protein and RNA (RNeasy Plus Mini; Qiagen, Valencia, Calif.) and subjected to enzyme linked immunosorbent assay (ELISA) and reverse transcriptase polymerase chain reaction (RT-PCR) for HO-1, haptoglobin, and IL-10 protein and messenger RNAs (mRNAs). Zager et al. J Am Soc Nephrol 2014; 25:998-1012; Zager et al. Am J Physiol 2012; 303:F139-48. As an assessment of renal function, control mice and the 18 hour after N-Mgb+SnPP-treated mice had blood urea nitrogen (BUN) and plasma creatinine levels measured. Additionally, transverse 10% formalin fixed kidney sections ([…]) were cut and stained with hematoxylin and eosin (H&E) and periodic acid Schiff (PAS) to further assess potential injury.

The test system of another data set is ferritin heavy chain. Kind of data set: Kidney ferritin heavy chain expression (Western blotting). The settings on record: 18 hrs following 1 umole SnPP, 1 mg FeS or combined. It is filed as in vivo, mice. How it is done: FIG. 32. Ferritin heavy chain expression (as determined by Western blotting) in kidneys 18 hrs following 1 umole tin protoporphyrin (SnPP), 1 mg Fe sucrose (FeS) or combined SnPP+FeS treatment.
On the technique in general: Immunoblotting shows a protein as a band on a membrane.

In data set [5] the test system is IL-10 protein. The data set can be described thus: Kidney IL-10 protein (ELISA). It is filed as in vivo, CD-1 mice. How it is done: as §1
In general terms: ELISA stands for enzyme-linked immunosorbent assay.

Data set [6] concerns haptoglobin mRNA. The data set can be described thus: Cardiac haptoglobin mRNA (RT-PCR). It is filed as in vivo, CD-1 mice. The method, then: as §1
For data set [7], the system named is haptoglobin protein. The data set can be described thus: Kidney haptoglobin protein (ELISA). Format: in vivo, CD-1 mice. The method, then:
as §1

Data set [8] has as its system haptoglobin protein. Kind of data set: Liver haptoglobin protein (ELISA). It is filed as in vivo, CD-1 mice. Details: unit not given beside the values. The method, then:
as §1

The next data set relates to IL-10 mRNA. Kind of data set: Cardiac IL-10 mRNA (RT-PCR). Format: in vivo, CD-1 mice. The method, then:
as §1

In another data set the test system is maleate model of AKI. The data set can be described thus: Maleate model of AKI (800 mg/Kg), FeS/SnPP and FeS/B12. Format: in vivo, CD-1 mice. The settings on record: IV 18 hrs before 800 mg/Kg maleate; 18 hrs post maleate; 1 mg FeS, 1 μmole SnPP or B12. The source says:
Effects of Fe sucrose (FeS)/tin protoporphyrin (SnPP) on AKI severity. Maleate model of AKI. When injected into rodents, maleate undergoes relatively selective proximal tubule cell uptake via organic anion transporters. Once intracellular accumulation occurs, maleate is a preferred substrate for succinyl-CoA:3-oxoacid CoA transferase. […] Ample levels of CoA are essential for fatty acid “activation”, allowing for their subsequent metabolism through the Krebs cycle, yielding ATP. In the absence of this process, proximal tubule ATP depletion and cell injury result. Additionally, maleate conjugates the sulfhydryl group of glutathione (GSH), culminating in GSH depletion and potential oxidant tubular stress.
The following experiment tested whether FeS, SnPP or combined FeS+SnPP can mitigate this form of acute kidney injury (AKI). Twenty seven mice were subjected to 200 μL IV tail injections of one of the following: 1) vehicle (phosphate buffered saline, PBS; n, 10); 2) 1 mg FeS (American Regent (Shirley, N.Y.; n, 3); 3) 1 μmole SnPP (Frontier Scientific, Logan, Utah; n 7), or FeS+SnPP, n, 7). […] The severity of kidney injury was assessed by determining plasma blood urea nitrogen (BUN) and plasma creatinine (PCr) concentrations.
Maleate model of AKI. […] The severity of AKI was determined 18 hrs post maleate injection by terminal BUN and PCr assessments.

Data set [9] relates to HO-1 protein. Kind of data set: Cardiac HO-1 protein (ELISA). The following applies: 18 h after IV injection. It is filed as in vivo, CD-1 mice. How it is done:
as §1

Data set [10] concerns HO-1 protein. The data set can be described thus: Liver HO-1 protein (ELISA). It is filed as in vivo, CD-1 mice. Details: unit not given beside the values. How it is done:
as §1

The mark [11] stands for this setting: 4 h after IV injection, N-Mgb 1 mg, SnPP 1 mmol [sic].

The structures appear in SMILES notation.

Regarding `C=Cc1c2[n-]c(c1C)/C=c1\[n-]/c(c(C)c1C=C)=C\c1[n-]c(c(CCC(=O)O)c1C)/C=c1\[n-]c(c(C)c1CCC(=O)O)=C2.[Sn+4]` [SnPP, tin protoporphyrin], in data set [1], the “Reduction of Mgb toxicity” value is on record as not above 85%. In addition, the “Renal cortical haptoglobin mRNA induction” value in the data set on haptoglobin mRNA [2] is “raised”. Also, the Tolerability in humans entry in [3] is on record as “well tolerated in humans”. Further, the “Cardiac Protein IL-10” value in the data set on IL-10 protein [4] (4 h after IV injection) is reported as 15.8 ± 10^. Further, in the data set on IL-10 protein [4] (18 h after IV injection), the “Cardiac protein IL-10 (L-10 [sic])” value was 23.4 ± 14^. Moreover, the “Ferritin heavy chain protein levels in kidney” value in the data set with ferritin heavy chain is recorded as “weak effect”. Also, the “Kidney IL-10 protein” value in the data set on IL-10 protein [5] (setting [11]) amounted to 550 ± 86. The “Kidney protein IL-10” value in the data set on IL-10 protein [5] (18 h after IV injection) is 454 ± 51. In the data set on IL-10 protein [5] (18 hours, agent alone), the “Renal IL-10 protein increase, in words” value is “absence of IL-10 protein increases”. For the same compound, the “Cardiac mRNA Haptoglobin” value in the data set with haptoglobin mRNA [6] (4 h after IV injection) was found to be 0.52 ± 0.21; in the data set with haptoglobin mRNA [6] (18 h after IV injection), 0.59 ± 0.17. In the data set on haptoglobin protein [7] (setting [11]), the “Kidney Haptoglobin protein” value is reported as 13.1 ± 1.3. Moreover, the “Kidney protein Haptoglobin” value with haptoglobin protein [7] (18 h after IV injection) is listed as 53.5 ± 17.2. Besides, the “Liver protein Haptoglobin” value in the data set on haptoglobin protein [8] (4 h after IV injection) is listed as 130.0 ± 8.9; with haptoglobin protein [8] (18 h after IV injection), 212.0 ± 63.6. The “Cardiac mRNA IL-10” value in the data set with IL-10 mRNA (4 h after IV injection) is reported as 0.58 ± 0.16; in the data set on IL-10 mRNA (18 h after IV injection) it was 0.53 ± 0.10. In addition, the “Severity of maleate-induced AKI (BUN/PCr), in words” value in the data set with maleate model of AKI is on record as “Neither SnPP alone nor FeS alone significantly altered the severity of renal injury”. In addition, in the data set on HO-1 protein [9], the “Cardiac protein HO-1” value is given as 2.67 ± 0.4. The “Liver protein HO-1” value with HO-1 protein [10] (4 h after IV injection) was 7.4 ± 0.7; in the data set with HO-1 protein [10] (18 h after IV injection) it was 18 ± 2.5.

The record behind these values is US20190358242A1, “COMPOSITIONS, KITS, AND METHODS TO INDUCE ACQUIRED CYTORESISTANCE USING STRESS PROTEIN INDUCERS” (FRED HUTCHINSON CANCER RESEARCH CENTER, priority 2017, published 2019).
